Test results reported in patent US5053508A, “Fused heterotricyclic imides with psychotropic activity and intermedrates thereof” (American Home Products Corporation, priority 1990, dated 1991).

What follows are compounds tested on Male CD rats (assay: conditioned avoidance (shelf-jump response) test). Conditions: i.p.
Format: in vivo
Source text: A test designed to determine the potential antipsychotic activity of the compounds of the invention is the conditioned avoidance (shelf-jump response) test.
Male CD rats (Charles River) maintained at approximately 400-450 gm body weight are used. […] A moveable wall, controlled by a motor, determines whether the rat has access to the shelf at any time during the experiment. The experimental chamber also contains a house light and sonalert. A steel grid floor in the main chamber is wired for presentation of electric shock. Each trial consists of a fifteen-second warning tone (conditioned stimulus), continuing for an additional fifteen seconds accompanied by electric shock (unconditioned stimulus). A response (jumping onto the exposed shelf of the upper chamber) occurring during the initial fifteen-second warning tone is considered an avoidance response, while a response occurring during shock delivery is considered an escape response. Trials are presented on a fixed interval schedule of one minute. The session consists of thirty-six trials. Animals are run twice weekly with control sessions always preceding a drug run, and with at least one day intervening. Compounds are administered i.p. or p.o. at appropriate pre-treatment times to a minimum of five rats at each dose level over a range of doses.
The following experimental parameters are recorded by computer: (1) the number of avoidance responses, (2) the number of escape responses, and (3) the number of trials in which no response occurred.
Response counts are summed over all subjects at a given dose. […] This number is expressed as a percentage of the total trials. Control performance is arbitrarily assigned a value of 100% for avoidance responding and the dose calculated to produce a 50% block in avoidance responding (AB50) is obtained from a dose-effect regression line fitted by the method of least squares. Potential antipsychotic compounds suppress avoidance responding and increase escape responding.

| Compound | Active at [mg/kg] |
| --- | --- |
| CC1=NOC2C3CC(C12)C1C(=O)N(CCCCN2CCN(c4cncc(Cl)n4)CC2)C(=O)C31.O=C(O)C(=O)O (stereo not drawn) [Example 6, 6-[4-[4-(6-chloro-2-pyrazinyl)-1-piperazinyl]butyl]-3a,4,4a,7a,8,8a-hexahydro-3-methyl-4,8-methano-5H-pyrrolo[3,4-f]-1,2-benzisoxazole-5,7(6H)-dione, ethanedioate (1:1)] | 40 |
| Cl.O=C1C2C3CS(=O)(=O)CC3C2C(=O)N1CCCCN1CCN(c2nccnc2Cl)CC1 (stereo not drawn) [Example 2, 5-[4-[4-(3-chloro-2-pyrazinyl)-1-piperazinyl]butyl]tetrahydro-1H-thieno[3',4':3,4]cyclobuta[1,2-c]pyrrole-4,6(3H,5H)dione 2,2-dioxide, hydrochloride] | 40 |
| Cl.O=C1C2C3CS(=O)(=O)CC3C2C(=O)N1CCCCN1CCN(c2cncc(Cl)n2)CC1 (stereo not drawn) [Example 1, 5-[4-[4-(6-chloro-2-pyrazinyl)-1-piperazinyl]butyl]tetrahydro-1H-thieno[3',4':3,4]cyclobuta[1,2-c]pyrrole-4,6(3H,5H)-dione 2,2 dioxide hydrochloride] | 40 |
| CC1=NOC2C3CCC(C12)C1C(=O)N(CCCCN2CCN(c4ncccn4)CC2)C(=O)C31.O=C(O)C(=O)O (stereo not drawn) [Example 10, 6-[4-[4-(2-pyrimidinyl)-1-piperazinyl]butyl]-3a,4,4a,7a,8,8a-hexahydro-3-methyl-4,8-ethano-5H-pyrrolo[3,4-f]-1,2-benzisoxazole-5,7(6H)-dione, ethanedioate (1:1)] | 40 |
| CC1=NOC2C3CC(C12)C1C(=O)N(CCCCN2CCN(c4cnccn4)CC2)C(=O)C31 (stereo not drawn) [Example 7, 6-[4-[4-(2-pyrazinyl)-1-piperazinyl]butyl]-3a,4,4a,7a,8,8a-hexahydro-3-methyl-4,8-methano-5H-pyrrolo[3,4-f]-1,2-benzisoxazole-5,7(6H)-dione, ethanedioate (1:1), hemiethanolate] | 40 |
| CC1=NOC2C3CCC(C12)C1C(=O)N(CCCCN2CCN(c4cnccn4)CC2)C(=O)C31.O=C(O)C(=O)O (stereo not drawn) [Example 11, 6-[4-[4-(2-pyrazinyl)-1-piperazinyl]butyl]-3a,4,4a,7a,8,8a-hexahydro-3-methyl-4,8-ethano-5H-pyrrolo[3,4-f]-1,2-benzisoxazole-5,7(6H)-dione, ethanedioate (1:1)] | 40 |
| 6-[4-[4-2-pyrimidinyl)-1-piperazinyl]butyl]-3a,4,4a,7a,8,8a-hexahydro-3-methyl-4,8-methano-5H-pyrrolo[3,4-f]-1,2-benzisoxazole-5,7(6H)-dione, dihydrochloride, hydrate [Example 8] | 40 |

Same assay, conditions: p.o.

| Compound | Active at [mg/kg] |
| --- | --- |
| Cl.O=C1C2C3CS(=O)(=O)CC3C2C(=O)N1CCCCN1CCN(c2cncc(Cl)n2)CC1 (stereo not drawn) [Example 1, 5-[4-[4-(6-chloro-2-pyrazinyl)-1-piperazinyl]butyl]tetrahydro-1H-thieno[3',4':3,4]cyclobuta[1,2-c]pyrrole-4,6(3H,5H)-dione 2,2 dioxide hydrochloride] | 40 |

These compounds were tested on dopamine receptor (assay: not given). Conditions: i.p.; result in words.

| Compound | activity in the apomorphine-induced stereotyped behavior assay |
| --- | --- |
| O=C1CC2(CCCC2)CC(=O)N1CCCCN1CCN(c2ncccn2)CC1 [Buspirone, 8-[4-[4-(2-pyrimidinyl)-1-piperazinyl]butyl]-8-azaspiro[4.5]decane-7,9-dione] | inactive |
